Source: patent US20040048816A1, “Restenosis treatment” (priority 2000, published 2004)

Experiments:
[1] = test system: primary human coronary smooth muscle cells; assay: Flow cytometry of apoptosis in cultured SMCs (FITC-Annexin V / PI double staining); format: cell-based
Experimental: The effect of IFNγ on the survival of cultured proliferating SMCs was analyzed by flow cytometry. For this reason primary human coronary smooth muscle cells were obtained from CellSystems (Germany) and were grown in Smooth muscle cell growth medium (CellSystems) containing 5% fetal calf serum (CellSystems) at 37° C. in a humidified atmosphere of 5% CO2. SMCs were used between passages 2 and 4. Treatment with 1000 U/ml rh-IFNγ (R&D Systems) was performed for 16 h. For induction of cell death, SMCs were incubated at 37° C. for 1 h in HBSS containing 100 μmol/l H2O2 and 100 μmol/l ferrous sulfate. Afterwards the cells were further cultured in freshly prepared culture medium for 8 h. Cells were labelled with FITC-labelled Annexin V (Roche Diagnostics) and propidium iodide (PI) according to the manufacturer's instructions. 10^4 events were analyzed with a flow cytometer (Becton Dickinson).

[2] = test system: human coronary artery smooth muscle cells (CASMC); assay: Transcriptome analysis (cDNA arrays) of treated cultured CASMC; format: cell-based; settings: 1000 U/ml IFN-γ, 16 hours, 37° C.
Experimental: To adapt the transcriptional profile of cultured human coronary artery smooth muscle cells (CASMC) (Clonetics) to that of neointima, CASMC were stimulated with IFN-g and performed transcriptome analysis as described above. CASMC were cultured as described in the manufacter's manual in growth medium until 50% confluency was reached. Afterwards cells were stimulated with 1000 U/ml IFN-γ (R&D, Germany) for 16 hours at 37° C. Cells were washed twice in PBS and RNA preparation, cDNA synthesis and amplification and transcriptome analysis was performed as described above.
As proliferating CASMC overexpress FKBP12 like neointima, this cell line can be employed as a potential surrogate cell line for neointima in respect to therapeutic effects of rapamycin. Therefore, in a first step, CASMC were incubated with lo0ng/ml rapamycin (Sigma) for 24 hours and transcriptome analysis was performed in order to monitore the therapeutic effect.
Afterwards, microscopic specimen of in-stent restenotic tissue are incubated with rapamycin and transcriptome analysis was performed as described herein above. Transcriptome/gene expression pattern of rapamycin treated CASMC was compared to the transcriptome of rapamycin-treated neointima to measured the effectiveness of CASMC as a surrogate cell line for neointima.

[3] = biological target: T1, glycoprotein IIb/IIIa (Homo sapiens, UniProt P05106+P08514); settings: at 30 days after surgery; versus 10.6%; cited from earlier work
T1 construct: host or cells: patients in clinical trials (endogenous protein)

Substance	spontaneous apoptosis (apoptotic cells) ([1]; SMCs after 1000 U/ml rh-IFNγ for 16 h, untreated 10%) [%]	number of apoptotic cells after induction of apoptosis with H2O2 ([1]; SMCs, 1000 U/ml rh-IFNγ 16 h, then 100 μmol/l H2O2, without IFNγ 54%) [%]	gene expression pattern of CASMCs after incubation [2]	death rate, myocardial infarction and/or target vessel vascularization [3] [%]
IFNγ: recombinant human interferon γ (R&D Systems), a cytokine mainly produced by T-lymphocytes	6	27	neointima-specific IFN-γ gene expression pattern could be generated	
abciximab: monoclonal antibody recognizing glycoprotein IIb/IIIa				5.3
